Activity calls are given as the source filed them. The calls are words filed in the database; no cut-off is given here.
How the values were obtained:
[1] = Drug metabolism in human hepatocytes assessed as metabolite formation by LC/MS analysis; type: ADME, cell-based, Hepatocyte
[2] = system: Rattus norvegicus; test: Antihypertensive activity in spontaneous hypertensive rat model assessed as decrease in systolic blood pressure at 3 mg/kg, po QD observed for 3 days; type: functional, organism-based; conditions: time 3.0 day
[3] = Metabolic stability in human liver microsomes by LC/MS analysis; type: ADME, Microsome
[4] = AUC (0 to infinity) in Wistar Han rat at 2 mg/kg, po or 1 mg/kg, iv; type: ADME, organism-based; design: dose 2 mg/kg; conditions: in vivo
[5] = Drug metabolism in Wistar Han rat hepatocytes assessed as metabolite formation by LC/MS analysis; type: ADME, cell-based, Hepatocyte
[6] = Cmax in Beagle dog at 2 mg/kg, po or 1 mg/kg, iv; type: ADME, organism-based, Canis lupus familiaris; design: dose 2 mg/kg; conditions: in vivo
[7] = Tmax in Wistar Han rat at 2 mg/kg, po or 1 mg/kg, iv; type: ADME, organism-based; conditions: in vivo
[8] = Drug metabolism in Beagle dog hepatocytes assessed as metabolite formation by LC/MS analysis; type: ADME, cell-based, Canis lupus familiaris, Hepatocyte
[9] = Tmax in rhesus monkey at 2 mg/kg, po or 1 mg/kg, iv; type: ADME, organism-based, Macaca mulatta; conditions: in vivo
[10] = Metabolic stability in Wistar Han rat hepatocytes by LC/MS analysis; type: ADME, cell-based, Hepatocyte
[11] = Metabolic stability in human hepatocytes by LC/MS analysis; type: ADME, cell-based, Hepatocyte
[12] = Metabolic stability in rhesus monkey liver microsomes by LC/MS analysis; type: ADME, Macaca mulatta, Microsome
[13] = Terminal half life in rhesus monkey at 2 mg/kg, po or 1 mg/kg, iv; type: ADME, organism-based, Macaca mulatta; conditions: in vivo, read-out: beta t1/2 (converted)
[14] = Volume of distribution at steady state in Wistar Han rat at 2 mg/kg, po or 1 mg/kg, iv; type: ADME, organism-based; conditions: in vivo, read-out: Vdss
[15] = molecular target: T1, ATP-sensitive inward rectifier potassium channel 1 (Homo sapiens, UniProt P48048); test: Inhibition of human ROMK expressed in CHO cells by whole cell voltage clamp electrophysiology assay; type: cell-based
T1 sequence (P48048 whole entry): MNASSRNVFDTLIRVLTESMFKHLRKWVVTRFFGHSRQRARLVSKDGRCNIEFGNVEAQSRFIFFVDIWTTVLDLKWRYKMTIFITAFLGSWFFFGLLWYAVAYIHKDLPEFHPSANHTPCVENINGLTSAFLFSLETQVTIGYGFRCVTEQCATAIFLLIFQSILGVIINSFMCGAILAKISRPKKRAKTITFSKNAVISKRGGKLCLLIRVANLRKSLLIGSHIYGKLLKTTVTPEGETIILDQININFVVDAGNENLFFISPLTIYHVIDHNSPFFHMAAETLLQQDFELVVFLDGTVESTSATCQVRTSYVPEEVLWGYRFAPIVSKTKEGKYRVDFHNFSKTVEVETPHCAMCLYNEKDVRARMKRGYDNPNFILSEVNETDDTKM

[16] = Effective half life in Wistar Han rat at 2 mg/kg, po or 1 mg/kg, iv; type: ADME, organism-based; conditions: in vivo, read-out: t1/2eff (converted)
[17] = system: Rattus norvegicus; test: Diuretic activity in orally dosed spontaneous hypertensive rat assessed as increase in sodium excretion treated for 3 days measured after 0 to 4 hrs of dosing; type: functional, organism-based; conditions: time 3.0 day
[18] = Tmax in Beagle dog at 2 mg/kg, po or 1 mg/kg, iv; type: ADME, organism-based, Canis lupus familiaris; conditions: in vivo
[19] = Drug metabolism in rhesus monkey hepatocytes assessed as N-acetylglucosamine conjugate metabolite formation by LC/MS analysis; type: ADME, cell-based, Macaca mulatta, Hepatocyte
[20] = molecular target: Cytochrome P450 3A4 (Homo sapiens, UniProt P08684); test: Inhibition of CYP3A4 (unknown origin)
Cytochrome P450 3A4, sequence (P08684 whole entry): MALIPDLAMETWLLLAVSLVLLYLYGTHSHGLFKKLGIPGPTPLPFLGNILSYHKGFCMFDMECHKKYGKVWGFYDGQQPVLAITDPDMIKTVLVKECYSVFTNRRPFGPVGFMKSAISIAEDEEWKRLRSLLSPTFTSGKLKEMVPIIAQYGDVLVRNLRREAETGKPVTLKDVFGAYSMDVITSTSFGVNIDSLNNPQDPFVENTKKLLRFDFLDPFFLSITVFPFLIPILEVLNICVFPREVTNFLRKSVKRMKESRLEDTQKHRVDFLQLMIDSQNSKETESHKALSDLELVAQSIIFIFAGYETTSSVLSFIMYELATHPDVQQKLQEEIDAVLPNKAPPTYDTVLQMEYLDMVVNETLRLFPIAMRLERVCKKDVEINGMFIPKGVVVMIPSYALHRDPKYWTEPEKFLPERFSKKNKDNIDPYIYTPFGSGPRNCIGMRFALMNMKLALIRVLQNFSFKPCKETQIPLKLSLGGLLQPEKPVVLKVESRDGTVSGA

[21] = Toxicity in dog assessed as tolerance at 0.3 to 6 mg/kg treated for 7 days; type: organism-based, Canis lupus familiaris; conditions: in vivo, 168 h, dose 0.3-6 mg/kg, time 7 day
[22] = Terminal half life in Beagle dog at 2 mg/kg, po or 1 mg/kg, iv; type: ADME, organism-based, Canis lupus familiaris; conditions: in vivo, read-out: beta t1/2 (converted)
[23] = system: Rattus norvegicus; test: Antihypertensive activity in spontaneous hypertensive rat model assessed as decrease in systolic blood pressure at 1 mg/kg, po QD observed for 3 days; type: functional, organism-based; conditions: time 3.0 day
[24] = Oral bioavailability in Wistar Han rat at 2 mg/kg; type: ADME, organism-based; conditions: in vivo
[25] = AUC (0 to infinity) in Beagle dog at 2 mg/kg, po or 1 mg/kg, iv; type: ADME, organism-based, Canis lupus familiaris; design: dose 2 mg/kg; conditions: in vivo
[26] = Toxicity in rat assessed as tolerance at 5 to 300 mg/kg treated for 7 days; type: organism-based; conditions: in vivo, 168 h, dose 5-300 mg/kg, time 7 day
[27] = Toxicity in rat assessed as change in body weight at 5 to 300 mg/kg treated for 7 days; type: organism-based; conditions: in vivo, 168 h, dose 5-300 mg/kg, time 7 day
[28] = Effective half life in Beagle dog at 2 mg/kg, po or 1 mg/kg, iv; type: ADME, organism-based, Canis lupus familiaris; conditions: in vivo, read-out: t1/2eff (converted)
[29] = Oral bioavailability in rhesus monkey at 2 mg/kg; type: ADME, organism-based, Macaca mulatta; conditions: in vivo
[30] = Metabolic stability in Wistar Han rat liver microsomes by LC/MS analysis; type: ADME, Microsome
[31] = Apparent permeability in pig LLC-PK1 cells
[32] = molecular target: T2, ATP-sensitive inward rectifier potassium channel 1 (Rattus norvegicus, UniProt P35560); test: Inhibition of rat Kir1.1 expressed in HEK293 cells by electrophysiology assay; type: cell-based
T2 sequence (P35560 whole entry): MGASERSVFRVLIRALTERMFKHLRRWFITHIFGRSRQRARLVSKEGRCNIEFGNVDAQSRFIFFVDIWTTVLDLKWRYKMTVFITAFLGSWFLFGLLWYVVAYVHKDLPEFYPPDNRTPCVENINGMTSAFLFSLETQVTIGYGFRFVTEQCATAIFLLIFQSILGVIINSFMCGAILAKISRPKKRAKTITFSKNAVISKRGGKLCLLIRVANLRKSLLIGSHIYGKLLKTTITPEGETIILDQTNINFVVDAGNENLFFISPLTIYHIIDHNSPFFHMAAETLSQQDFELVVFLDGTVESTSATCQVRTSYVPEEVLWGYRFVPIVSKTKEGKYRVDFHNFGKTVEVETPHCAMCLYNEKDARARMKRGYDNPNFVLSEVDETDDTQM

[33] = Toxicity in rat assessed as histological changes at 5 to 300 mg/kg treated for 7 days; type: organism-based; conditions: in vivo, 168 h, dose 5-300 mg/kg, time 7 day
[34] = Clearance in Beagle dog at 2 mg/kg, po or 1 mg/kg, iv; type: ADME, organism-based, Canis lupus familiaris; conditions: in vivo
[35] = molecular target: T3, ATP-sensitive inward rectifier potassium channel 10 (Homo sapiens, UniProt P78508); test: Inhibition of Kir4.1 (unknown origin)
T3 sequence (P78508 whole entry): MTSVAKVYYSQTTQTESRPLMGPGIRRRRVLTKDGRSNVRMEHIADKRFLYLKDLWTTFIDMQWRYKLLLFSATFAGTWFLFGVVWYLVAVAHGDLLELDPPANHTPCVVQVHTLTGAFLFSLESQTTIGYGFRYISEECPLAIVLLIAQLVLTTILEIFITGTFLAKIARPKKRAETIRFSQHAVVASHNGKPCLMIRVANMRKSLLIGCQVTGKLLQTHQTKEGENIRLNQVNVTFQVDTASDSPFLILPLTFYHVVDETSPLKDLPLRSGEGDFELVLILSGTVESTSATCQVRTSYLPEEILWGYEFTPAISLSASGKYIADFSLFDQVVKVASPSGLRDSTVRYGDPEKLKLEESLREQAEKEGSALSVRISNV

With `CC1=C(N2CCC3(CCN(C[C@H](O)c4ccc5c(c4C)COC5=O)CC3)C2=O)COC1=O` the Drug metabolism [1] was “Metabolite_Notdetected”, the Activity [2] was “Dose-Dependent Effect” and the Stability [3] was “Stable”. For the same molecule, the AUC(0-inf) [4] was 1.4 µM·h, the Drug metabolism [5] was “Metabolite_Notdetected” and the Cmax [6] was 2400 nM. The Tmax [7] was 0.5 h, the Drug metabolism [8] was “Metabolite_Notdetected” and the Tmax [9] was 0.5 h. The Stability [10] was “Stable”, the Stability [11] was “Stable” and the Stability [12] was “Stable”. The half-life [13] was 3.3 h, the Vd [14] was 14.7 L/kg and the IC50 [15] was 5 nM. For the same molecule, the half-life [16] was 1.8 h, the Activity [17] was “Dose-Dependent Effect” and the Tmax [18] was 0.8 h. The Drug metabolism [19] was “Metabolite_Detected”, the IC50 [20] was > 50000 nM and the Activity [21] was “Non-Toxic”. For the same molecule, the half-life [22] was 9.1 h, the Activity [23] was “Active” and the bioavailability [24] was 53%. The AUC(0-inf) [25] was 15.1 µM·h, the Activity [26] was “Non-Toxic” and the Activity [27] was “Non-Toxic”. The half-life [28] was 6.8 h, the bioavailability [29] was 3.4% and the Stability [30] was “Stable”. For the same molecule, the Papp [31] was 21 ×10⁻⁶ cm/s, the IC50 [32] was 2.8 nM and the Activity [33] was “Non-Toxic”. For the same molecule, the clearance [34] was 8.7 mL/min/kg and the IC50 [35] was > 100000 nM.

Source: ChEMBL document CHEMBL5038592, “Discovery of MK-8153, a Potent and Selective ROMK Inhibitor and Novel Diuretic/Natriuretic” (J Med Chem, 2021)
